# Legend:
# IRAK4 [1] = target: T1, IRAK4 (Homo sapiens (Human), UniProt Q9NWZ3); assay: Western blot assay for assessing degradation of IRAK4 in MCF7 cells; assay type: cell-based; details: Table 5, IRAK4 degradation, 24 hour incubation; for DC50: read-out: IRAK4 DC50; for Dmax: read-out: IRAK4 Dmax (%)
# In short: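 MCF7 cells were treated 24 h with serially diluted compound (0.1% DMSO final), then lysed in RIPA. IRAK4 and IRAK1 levels were measured by western blot with β-actin probed alongside. Percent degradation compared compound-treated with DMSO-treated lysates.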
# IRAK4 [2] = target: T1, IRAK4; assay: Biochemical Z'-Lyte FRET assay for IRAK4 kinase inhibition; details: 2 nM enzyme, 1 mM ATP, 2 μM substrate
# In short: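 Z′-Lyte FRET phosphorylation of Ser/Thr 7 peptide (2 µM) by 2 nM recombinant IRAK4 at 1 mM ATP in HEPES pH 7.5 with MgCl2/MnCl2, after 10 min enzyme–compound preincubation; 1 h at room temperature, then 1 h development, 460/530 nm emission. Duplicate 12-point, 3-fold curves from 30 µM; IC50 from percent inhibition against ±100% controls.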
# T1 sequence (Q9NWZ3 whole entry): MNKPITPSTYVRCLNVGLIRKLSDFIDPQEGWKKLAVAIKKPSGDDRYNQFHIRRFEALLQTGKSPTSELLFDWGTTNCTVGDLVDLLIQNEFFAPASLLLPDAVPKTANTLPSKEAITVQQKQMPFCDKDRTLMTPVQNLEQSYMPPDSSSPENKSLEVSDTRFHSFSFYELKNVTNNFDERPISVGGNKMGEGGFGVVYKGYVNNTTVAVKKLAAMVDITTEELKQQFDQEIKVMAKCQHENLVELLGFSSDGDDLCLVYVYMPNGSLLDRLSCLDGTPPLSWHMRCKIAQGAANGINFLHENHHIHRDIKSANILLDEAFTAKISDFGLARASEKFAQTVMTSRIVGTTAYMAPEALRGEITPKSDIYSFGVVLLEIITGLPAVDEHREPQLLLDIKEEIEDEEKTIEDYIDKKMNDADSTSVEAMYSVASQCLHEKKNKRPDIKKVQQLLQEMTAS
molecule,measurement,setting,value
"O=C1CCC(N2C(=O)c3ccc(OCCN4CCN(Cc5ccc6c(c5)nc(NC(=O)c5cccc(C(F)(F)F)c5)n6-c5ccccc5)CC4)cc3C2=O)C(=O)N1 (centres unmarked) [compound 55, N-(5-((4-(2-((2-(2,6-dioxopiperidin-3-yl)-1,3-dioxoisoindolin-5-yl)oxy)ethyl)piperazin-1-yl)methyl)-1-phenyl-1H-benzo[d]imidazol-2-yl)-3-(trifluoromethyl)benzamide]",DC50,IRAK4 [1],≥ 1000 nM
same,IC50,IRAK4 [2],≥ 1000 nM
"COc1cccc(-n2c(NC(=O)c3cccc(C(F)(F)F)c3)nc3cc(CN4CCN(CCOc5ccc6c(c5)C(=O)N(C5CCC(=O)NC5=O)C6=O)CC4)ccc32)c1 (centres unmarked) [compound 56, N-(5-((4-(2-((2-(2,6-dioxopiperidin-3-yl)-1,3-dioxoisoindolin-5-yl)oxy)ethyl)piperazin-1-yl)methyl)-1-(3-methoxyphenyl)-1H-benzo[d]imidazol-2-yl)-3-(trifluoromethyl)benzamide]",DC50,IRAK4 [1],≥ 1000 nM
same,IC50,IRAK4 [2],≥ 1000 nM
"COc1cc2nn(C3CCN(CCOCCOc4ccc5c(c4)C(=O)N(C4CCC(=O)NC4=O)C5=O)CC3)cc2cc1NC(=O)c1cccc(C(F)(F)F)n1 (centres unmarked) [compound 58, N-(2-(1-(2-(2-((2-(2,6-dioxopiperidin-3-yl)-1,3-dioxoisoindolin-5-yl)oxy)ethoxy)ethyl)piperidin-4-yl)-6-methoxy-2H-indazol-5-yl)-6-(trifluoromethyl)picolinamide]",DC50,IRAK4 [1],< 30 nM
same,Dmax,IRAK4 [1],50 to 70%
same,IC50,IRAK4 [2],< 30 nM
"COc1cc2nn(C3CCN(CCOCCOCCOc4ccc5c(c4)C(=O)N(C4CCC(=O)NC4=O)C5=O)CC3)cc2cc1NC(=O)c1cccc(C(F)(F)F)n1 (centres unmarked) [compound 59, N-(2-(1-(2-(2-(2-((2-(2,6-dioxopiperidin-3-yl)-1,3-dioxoisoindolin-5-yl)oxy)ethoxy)ethoxy)ethyl)piperidin-4-yl)-6-methoxy-2H-indazol-5-yl)-6-(trifluoromethyl)picolinamide]",DC50,IRAK4 [1],300 to 1000 nM
same,Dmax,IRAK4 [1],50 to 70%
same,IC50,IRAK4 [2],< 30 nM
"COc1cc2nn(C3CCN(CCOCCOCCOc4ccc5c(c4)CN(C4CCC(=O)NC4=O)C5=O)CC3)cc2cc1NC(=O)c1cccc(C(F)(F)F)n1 (centres unmarked) [compound 61, N-(2-(1-(2-(2-(2-((2-(2,6-dioxopiperidin-3-yl)-1-oxoisoindolin-5-yl)oxy)ethoxy)ethoxy)ethyl)piperadin-4-yl)-6-methoxy-2H-indazol-5-yl)-6-(trifluoromethyl)picolinamide]",DC50,IRAK4 [1],≥ 1000 nM
same,IC50,IRAK4 [2],< 30 nM
"COc1cc2nn(C3CCN(CC4CCN(CCOc5ccc6c(c5)C(=O)N(C5CCC(=O)NC5=O)C6=O)CC4)CC3)cc2cc1NC(=O)c1cccc(C(F)(F)F)n1 (centres unmarked) [compound 63, N-(2-(1-((1-(2-((2-(2,6-dioxopiperidin-3-yl)-1,3-dioxoisoindolin-5-yl)oxy)ethyl)piperadin-4-yl)methyl)piperidin-4-yl)-6-methoxy-2H-indazol-5-yl)-6-(trifluoromethyl)picolinamide]",DC50,IRAK4 [1],30 to 100 nM
same,Dmax,IRAK4 [1],> 70%
same,IC50,IRAK4 [2],< 30 nM
"O=C1CCC(N2C(=O)c3cccc(NCCOCCOCCN4CCN(Cc5ccc6c(c5)nc(NC(=O)c5cccc(C(F)(F)F)c5)n6[C@H]5CC[C@@H](CO)CC5)CC4)c3C2=O)C(=O)N1 (some centres unmarked) [compound 66, N-(5-((4-(2-(2-(2-((2-(2,6-dioxopiperidin-3-yl)-1,3-dioxoisoindolin-4-yl)amino)ethoxy)ethoxy)ethyl)piperazin-1-yl)methyl)-1-((1s,4s)-4-(hydroxymethyl)cyclohexyl)-1H-benzo[d]imidazol-2-yl)-3-(trifluoromethyl)benzamide]",DC50,IRAK4 [1],300 to 1000 nM
same,IC50,IRAK4 [2],< 30 nM
"N-(1-(3-((2-(2,6- dioxopiperidin-3-yl)-1,3- dioxoisoindolin-5- yl)oxy)ethyl)(methyl)amino) phenyl)-5-(piperadin-1- yl)methyl)-1H- benzo[d]imidazol-2-yl)-3- (trifluoromethyl)benzamide [compound 68]",IRAK4 Dmax (%),IRAK4 [1],C (50 ≥ C > 30)
same,DC50,IRAK4 [1],300 to 1000 nM
same,IC50,IRAK4 [2],≥ 1000 nM

# Source: patent US11065231B2, “Compounds and methods for the targeted degradation of interleukin-1 receptor- associated kinase 4 polypeptides” (Arvinas Operations, Inc., priority 2017, dated 2021)
